Results from US20250171420A1 (Monte Rosa Therapeutics, Inc., priority 2022, published 2025).

What was measured:
[1] = Oral pharmacokinetics in male BALB/c mice; format: in vivo; conditions: mouse, PO 10 mg/kg, plasma, mean ± SD
Experimental: Male BALB/c mice were administered a discrete, oral (PO) dose of Compound 288, Compound 335, Compound 102, or Compound 303 at 10 mg/kg; all mice were fasted except for mice that were dosed with Compound 288. Male BALB/c mice were fasted overnight and administered a cassette dose, PO dose of Compound 303 and other compounds at 5 mg/kg per compound.
Blood samples were collected serially from three animals/time-point following PO administration of the test compounds to the mice and placed in tubes containing K2EDTA. The blood samples were centrifuged, and the aliquots of the resulting plasma stored frozen at −60 to −90° C.
The plasma samples were analyzed by LC-MS/MS to determine concentrations of the test compounds. The in-life portion of the study and the bioanalysis of plasma samples was conducted at Wuxi (China).
The pharmacokinetic parameters for the tested compounds were calculated by non-compartmental analysis using Phoenix WinNonlin software.

GP2D cell line = test: Growth inhibition, CyQUANT Direct Cell Proliferation Assay, GP2D; format: cell-based; conditions: GP2D, 120 to 168 hours; read-out: GP2D GI50
Outline: (§1)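 Cells seeded 300 to 1,800 per well, day-0 CyQUANT Direct read after overnight attachment; 9-point 3-fold dilutions from 30 μM top concentration, 120 to 168 h exposure, 0.3% DMSO control. Fluorescence Ex/Em 480/520 nm; growth inhibition normalised to day-0 and untreated day-N signals, GI50 at 50% of untreated control.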

LS180 cell line = test: Growth inhibition, CyQUANT Direct Cell Proliferation Assay, LS180; format: cell-based; conditions: Homo sapiens; LS180, 120 to 168 hours; read-out: LS180 GI50
Outline: as §1

CK1α [2] = biological target: T1, CK1α (Homo sapiens, UniProt P48729); test: CK1α NanoBit Assay (HiBiT-tagged CSNK1A1, HEK293 clonal lines); format: cell-based; conditions: HEK293 HiBiT-CSNK1A1/LgBiT cells, 24 h incubation
T1 construct: HEK293 clonal lines with CRISPR KI HiBiT tag on CSNK1A1
T1 sequence (P48729 whole entry): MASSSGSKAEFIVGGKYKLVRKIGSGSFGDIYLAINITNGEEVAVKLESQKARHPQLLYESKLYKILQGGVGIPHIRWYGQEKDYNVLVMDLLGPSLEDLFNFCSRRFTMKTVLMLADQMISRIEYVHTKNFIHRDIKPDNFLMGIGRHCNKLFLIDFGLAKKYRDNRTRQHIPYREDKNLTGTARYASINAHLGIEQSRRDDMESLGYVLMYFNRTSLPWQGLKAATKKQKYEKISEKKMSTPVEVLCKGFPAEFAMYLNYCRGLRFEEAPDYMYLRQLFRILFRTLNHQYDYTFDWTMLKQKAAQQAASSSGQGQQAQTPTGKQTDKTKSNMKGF
T1 sequence (Q96SW2 whole entry, further chain): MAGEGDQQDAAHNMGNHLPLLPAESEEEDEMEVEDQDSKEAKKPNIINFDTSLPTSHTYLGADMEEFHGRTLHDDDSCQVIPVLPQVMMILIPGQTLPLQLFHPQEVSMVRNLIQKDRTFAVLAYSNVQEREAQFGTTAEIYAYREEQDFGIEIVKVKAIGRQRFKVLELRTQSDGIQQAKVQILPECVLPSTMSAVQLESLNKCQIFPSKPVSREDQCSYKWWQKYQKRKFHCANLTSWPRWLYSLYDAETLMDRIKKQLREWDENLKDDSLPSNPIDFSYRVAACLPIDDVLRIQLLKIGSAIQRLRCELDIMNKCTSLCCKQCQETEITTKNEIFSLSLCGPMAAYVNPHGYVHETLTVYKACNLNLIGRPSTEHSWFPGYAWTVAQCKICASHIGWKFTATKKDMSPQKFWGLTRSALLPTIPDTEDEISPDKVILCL
T1 sequence (Q16531 2-1140 partner limits assumed): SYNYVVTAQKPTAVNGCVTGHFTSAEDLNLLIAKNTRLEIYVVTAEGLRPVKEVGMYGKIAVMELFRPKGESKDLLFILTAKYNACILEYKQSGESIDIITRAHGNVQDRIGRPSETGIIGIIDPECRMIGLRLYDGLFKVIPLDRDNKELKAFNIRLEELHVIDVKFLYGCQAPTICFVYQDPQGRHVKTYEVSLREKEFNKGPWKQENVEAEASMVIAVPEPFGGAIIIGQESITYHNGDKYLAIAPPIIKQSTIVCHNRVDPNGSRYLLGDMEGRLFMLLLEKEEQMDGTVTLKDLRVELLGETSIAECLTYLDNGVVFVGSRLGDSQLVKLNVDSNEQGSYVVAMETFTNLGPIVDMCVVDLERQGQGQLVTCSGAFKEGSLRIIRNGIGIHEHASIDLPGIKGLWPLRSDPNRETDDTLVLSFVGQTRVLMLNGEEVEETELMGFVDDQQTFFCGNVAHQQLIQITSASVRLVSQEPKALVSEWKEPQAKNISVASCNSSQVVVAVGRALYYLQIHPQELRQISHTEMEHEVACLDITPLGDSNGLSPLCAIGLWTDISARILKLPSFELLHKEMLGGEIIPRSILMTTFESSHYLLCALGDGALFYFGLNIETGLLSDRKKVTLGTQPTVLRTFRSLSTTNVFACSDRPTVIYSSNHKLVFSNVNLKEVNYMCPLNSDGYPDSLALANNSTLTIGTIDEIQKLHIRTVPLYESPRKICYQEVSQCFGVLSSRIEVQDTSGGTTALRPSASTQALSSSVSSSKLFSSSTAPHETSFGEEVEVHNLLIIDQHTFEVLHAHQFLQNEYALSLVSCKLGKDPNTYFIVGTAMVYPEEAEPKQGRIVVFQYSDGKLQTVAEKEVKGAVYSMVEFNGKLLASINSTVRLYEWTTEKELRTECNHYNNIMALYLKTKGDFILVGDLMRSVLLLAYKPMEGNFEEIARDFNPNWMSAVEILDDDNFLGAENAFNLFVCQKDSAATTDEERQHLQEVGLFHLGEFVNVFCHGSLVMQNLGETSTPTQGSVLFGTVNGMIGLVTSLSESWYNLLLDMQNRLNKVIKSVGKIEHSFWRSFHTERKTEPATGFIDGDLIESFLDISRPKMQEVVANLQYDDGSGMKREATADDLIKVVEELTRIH
Outline: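 HEK293 clones carrying a CRISPR knock-in HiBiT tag on CSNK1A1 and stably expressing LgBiT are treated with compound for 24 hours at 37° C, 5% CO2, then read by luminescence. Response is normalized as 100*(S−N)/(P−N) against plate negative and positive controls, and DC50 values are derived.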

CW2 cell line = test: Growth inhibition, CyQUANT Direct Cell Proliferation Assay, CW2; format: cell-based; conditions: Homo sapiens, CW-2; CW2, 120 to 168 hours; read-out: CW2 GI50
Outline: as §1

CK1α [3] = biological target: T2, CK1α (Homo sapiens, UniProt P48729+Q96SW2); test: Western blot of CK1α levels in HEK293 and HEK293 CRBN knock out cells; format: cell-based; conditions: 0.1, 1, 10 μM, 24 hours, FIG. 1
T2 construct: HEK293 clonal lines with CRISPR KI HiBiT tag on CSNK1A1
T2 sequence (P48729 whole entry): as the sequence (P48729 whole entry) above
T2 sequence (Q96SW2 whole entry): as the sequence (Q96SW2 whole entry, further chain) above
T2 sequence (Q16531 2-1140 partner limits assumed): as the sequence (Q16531 2-1140 partner limits assumed) above
Experimental: HEK293 cell line was purchased from ATCC (CRL-1573). HEK293 CRBN knock out (k/o) cell line (B2) was generated internally using CRISPR/Cas9 method and clonally expanded. Cells were plated at 2×10^5 cells per well in 6-well tissue culture plates (VWR) in 2 ml of DMEM media (Gibco) containing 10% FBS (Gibco), and incubated for 16 hours at 37° C., 5% CO2. Compounds were added to final concentration of 0.1 μM, 1 μM, 10 μM (DMSO concentration was kept constant at 0.1%), following incubation at 37° C., 5% CO2 for additional 24 hours. Cell lysis was performed using RIPA buffer (Pierce) containing Halt™ Protease Inhibitor Cocktail (ThermoFisher Scientific). Lysates were boiled at 95° C. for 10 minutes and 12 μg of protein lysate per sample was resolved by SDS-PAGE using 12% gels (BioRad) and transferred to nitrocellulose membrane (BioRad). Membranes were blocked using LI-COR blocking buffer (LI-COR) at room temperature for 1 hour, followed by overnight incubation with rabbit anti-CK1α (Abcam ab206652), rabbit anti-CRBN (Sigma HPA045910) and mouse anti-α-tubulin (Sigma T9026) antibodies at 4° C. Secondary antibodies (LI-COR) were added for 1 hour at room temperature, followed by imaging with LI-COR imaging system Odyssey® CLx.

- AUC [1]: 1040 ± 245 ng·h/mL
- AUC(0-t) [1]: 889 ± 218 ng·h/mL
- Cmax [1]: 361 ± 142 ng/mL
- Tmax [1]: 1.33 ± 0.58 h
- DC50 (CK1α [2]): < 0.1 µM
- effect on CK1a levels in HEK293 cell line (CK1α [3]; HEK293, cereblon present): decreases CK1a levels
- effect on CK1a levels in cereblon (CRBN) knock-out HEK293 cell line (CK1α [3]; HEK293 CRBN knock-out): no effect on CK1a levels
SMILES: C[C@@H]1Cc2ccccc2N1C(=O)Nc1ccc2c(c1)CN(C1CCC(=O)NC1=O)C2=O (stereo partly drawn) [Compound 102, (2R)—N-(2-(2,6-dioxopiperidin-3-yl)-1-oxoisoindolin-5-yl)-2-methylindoline-1-carboxamide]
- GI50 (GP2D cell line): 100 to 1000 nM
- GI50 (LS180 cell line): 100 to 1000 nM
- GI50 (CW2 cell line): < 100 nM
